Results on four compounds are retold here after PMC4867616, “Imaging of Cerebral Amyloid Angiopathy with Bivalent ^99mTc-Hydroxamamide Complexes” (Scientific Reports, 2016).

Data set [1] is described as follows: Ex vivo biodistribution in normal mice. To be noted: i.v., mean (SD), 5 animals. On the set-up: species or system ddY mice. The protocol: To evaluate brain uptake of ^99mTc-Ham complexes, biodistribution experiments of ^99mTc-Ham complexes were performed in normal mice. We selected ^18F-florbetapir as a control and compared the results of ^99mTc-Ham complexes with that of ^18F-florbetapir (Fig. 2). The brain uptake of [^99mTc]SB1A, [^99mTc]SB2A, [^99mTc]BT1B, and [^99mTc]BT2B at 2 min postinjection was 0.37, 0.28, 0.36, and 0.37% injected dose (ID)/g, respectively. The radioactivity in the brains remained low until 60 min postinjection. The results of the biodistribution study are shown in Table S1 in Supplementary information.
A saline solution (100 μL) of ^99mTc-Ham complexes (20 kBq) containing EtOH (10 μL) was injected directly into the tail vein of ddY mice (male, 5 weeks old). The mice were sacrificed at 2, 10, 30, and 60 min postinjection. The organs of interest were removed and weighed, and radioactivity was measured using a γ counter (PerkinElmer). The %ID/g of samples was calculated by comparing the sample counts with the count of the diluted initial dose.
*Corresponding author: M. Ono. Address: 46-29 Yoshida Shimoadachi-cho, Sakyo-ku, Kyoto 606-8501, Japan, Phone: +81-75-753-4608, Fax: +81-75-753-4568, E-mail: ono@pharm.kyoto-u.ac.jp. Ex vivo biodistribution in normal mice. A saline solution (100 μL) of ^99mTc-Ham complexes (20 kBq) containing EtOH (10 μL) was injected directly into the tail vein of ddY mice (male, 5 weeks old). The mice were sacrificed at 2, 10, 30, and 60 min postinjection. The organs of interest were removed and weighed, and radioactivity was measured using a γ counter (Wallac 1470 Wizard; PerkinElmer, Massachusetts, USA). Percentage dose per organ was calculated by comparing the tissue counts to suitably diluted aliquots of the injected material. The %dose/g of samples was calculated by comparing the sample counts with the count of the diluted initial dose.

For data set [2] the following is noted: normal mice, 2 min postinjection, similar experimental conditions; cited from earlier work.
In data set [3] the target is Aβ. On the set-up: method as in PMID 12801237, PMID 19837759. To be noted: order of magnitude only; cited from earlier work.

“And” between values parts separate entries of the source, which are not always exact repeats. Equal values may be shown once.

With `CN(C)c1ccc(/C=C/c2ccc(C3=N[O][99Tc-]4(=[O])([NH]C(c5ccc(N(C)C)cc5)=N[O]4)[NH2+]3)cc2)cc1` (single isomer, unassigned) [[^99mTc]SB1A], in data set [1] (2 min after injection), the “Biodistribution of radioactivity, Blood” value is given as 18.89 (4.57) % injected dose per gram; the “Biodistribution of radioactivity, Brain” value is 0.37 % injected dose per gram and 0.37 (0.05) % injected dose per gram; the “Biodistribution of radioactivity, Heart” value is listed as 9.48 (2.01) % injected dose per gram; the “Biodistribution of radioactivity, Intestine” value (shortened to “Biodistribution … Intestine”) is reported as 1.94 (0.25) % injected dose per gram. In data set [1] (2 min after injection), the “Biodistribution of radioactivity, Kidney” value was 10.74 (2.03) % injected dose per gram; the “Biodistribution of radioactivity, Liver” value is recorded as 28.55 (4.86) % injected dose per gram; the “Biodistribution of radioactivity, Lung” value was 15.47 (4.14) % injected dose per gram; the “Biodistribution of radioactivity, Pancreas” value (“Biodistribution … Pancreas” below) is given as 4.12 (0.62) % injected dose per gram. Further, in data set [1] (2 min after injection), the “Biodistribution of radioactivity, Spleen” value is 9.73 (3.34) % injected dose per gram and the “Biodistribution of radioactivity, Stomach” value (“Biodistribution … Stomach” for short) was 1.64 (0.41) % injected dose per organ. In data set [1] (10 min after injection), the “Biodistribution of radioactivity, Blood” value was 9.30 (1.96) % injected dose per gram; the “Biodistribution of radioactivity, Brain” value is given as 0.19 (0.02) % injected dose per gram; the “Biodistribution of radioactivity, Heart” value is reported as 6.51 (0.77) % injected dose per gram; the “Biodistribution … Intestine” value is recorded as 4.27 (0.88) % injected dose per gram. For the same compound, in data set [1] (10 min after injection), the “Biodistribution of radioactivity, Kidney” value is recorded as 9.48 (1.28) % injected dose per gram; the “Biodistribution of radioactivity, Liver” value is reported as 31.03 (2.29) % injected dose per gram; the “Biodistribution of radioactivity, Lung” value was 9.67 (0.88) % injected dose per gram; the “Biodistribution … Pancreas” value is listed as 3.09 (0.38) % injected dose per gram. In addition, in data set [1] (10 min after injection), the “Biodistribution of radioactivity, Spleen” value was 9.70 (3.03) % injected dose per gram and the “Biodistribution … Stomach” value is reported as 4.54 (0.97) % injected dose per organ. Besides, in data set [1] (30 min after injection), the “Biodistribution of radioactivity, Blood” value is reported as 6.06 (0.29) % injected dose per gram; the “Biodistribution of radioactivity, Brain” value was 0.16 (0.03) % injected dose per gram; the “Biodistribution of radioactivity, Heart” value was 2.98 (0.63) % injected dose per gram; the “Biodistribution … Intestine” value is given as 7.06 (1.67) % injected dose per gram. Also, in data set [1] (30 min after injection), the “Biodistribution of radioactivity, Kidney” value is 6.18 (0.84) % injected dose per gram; the “Biodistribution of radioactivity, Liver” value is on record as 20.17 (3.18) % injected dose per gram; the “Biodistribution of radioactivity, Lung” value was 5.31 (0.67) % injected dose per gram; the “Biodistribution … Pancreas” value was 1.74 (0.33) % injected dose per gram. In data set [1] (30 min after injection), the “Biodistribution of radioactivity, Spleen” value was 7.86 (1.11) % injected dose per gram and the “Biodistribution … Stomach” value is listed as 10.28 (2.03) % injected dose per organ. In addition, in data set [1] (60 min after injection), the “Biodistribution of radioactivity, Blood” value was 2.71 (0.14) % injected dose per gram; the “Biodistribution of radioactivity, Brain” value was 0.08 (0.00) % injected dose per gram; the “Biodistribution of radioactivity, Heart” value was 4.30 (0.14) % injected dose per gram; the “Biodistribution … Intestine” value is listed as 14.34 (2.35) % injected dose per gram. In data set [1] (60 min after injection), the “Biodistribution of radioactivity, Kidney” value is 9.66 (0.18) % injected dose per gram; the “Biodistribution of radioactivity, Liver” value is on record as 22.16 (2.20) % injected dose per gram; the “Biodistribution of radioactivity, Lung” value is recorded as 5.14 (0.29) % injected dose per gram; the “Biodistribution … Pancreas” value was 2.67 (0.07) % injected dose per gram. Moreover, in data set [1] (60 min after injection), the “Biodistribution of radioactivity, Spleen” value was 5.44 (0.49) % injected dose per gram and the “Biodistribution … Stomach” value is 6.63 (1.12) % injected dose per organ.

Take `CNc1ccc(/C=C/c2ccc(OCCOCCOCCF)nc2)cc1` [[^18F]florbetapir, reference compound]: in data set [2], the Initial brain uptake was 4.90 %ID/g. In addition, in data set [3], the Kd entry is recorded as “nM order”.

On to `CN(C)c1ccc(C2=N[O][99Tc-]3(=[O])([NH]2)[NH2+]C(c2ccc4nc(-c5ccc(N(C)C)cc5)sc4c2)=N[O]3)cc1` [[^99mTc]BT1B], for which, in data set [1] (2 min after injection), the “Biodistribution of radioactivity, Blood” value is on record as 18.61 (2.47) % injected dose per gram; the “Biodistribution of radioactivity, Brain” value was 0.36 % injected dose per gram and 0.36 (0.03) % injected dose per gram; the “Biodistribution of radioactivity, Heart” value was 5.25 (0.22) % injected dose per gram; the “Biodistribution … Intestine” value is recorded as 0.90 (0.25) % injected dose per gram. Also, in data set [1] (2 min after injection), the “Biodistribution of radioactivity, Kidney” value is 5.94 (0.73) % injected dose per gram; the “Biodistribution of radioactivity, Liver” value is 19.90 (4.06) % injected dose per gram; the “Biodistribution of radioactivity, Lung” value is reported as 10.87 (2.06) % injected dose per gram; the “Biodistribution … Pancreas” value is listed as 1.80 (0.28) % injected dose per gram. For the same compound, in data set [1] (2 min after injection), the “Biodistribution of radioactivity, Spleen” value is listed as 3.83 (0.84) % injected dose per gram and the “Biodistribution … Stomach” value is 1.39 (0.21) % injected dose per organ. Besides, in data set [1] (10 min after injection), the “Biodistribution of radioactivity, Blood” value is on record as 9.34 (2.62) % injected dose per gram; the “Biodistribution of radioactivity, Brain” value is given as 0.17 (0.04) % injected dose per gram; the “Biodistribution of radioactivity, Heart” value was 3.30 (1.02) % injected dose per gram; the “Biodistribution … Intestine” value was 2.00 (0.86) % injected dose per gram. For the same compound, in data set [1] (10 min after injection), the “Biodistribution of radioactivity, Kidney” value was 4.29 (1.25) % injected dose per gram; the “Biodistribution of radioactivity, Liver” value is on record as 25.64 (6.77) % injected dose per gram; the “Biodistribution of radioactivity, Lung” value is listed as 6.50 (1.41) % injected dose per gram; the “Biodistribution … Pancreas” value was 1.58 (0.55) % injected dose per gram. In data set [1] (10 min after injection), the “Biodistribution of radioactivity, Spleen” value is 3.00 (0.82) % injected dose per gram and the “Biodistribution … Stomach” value is 3.76 (0.82) % injected dose per organ. Moreover, in data set [1] (30 min after injection), the “Biodistribution of radioactivity, Blood” value is given as 5.84 (0.65) % injected dose per gram; the “Biodistribution of radioactivity, Brain” value is 0.11 (0.02) % injected dose per gram; the “Biodistribution of radioactivity, Heart” value is on record as 2.72 (0.28) % injected dose per gram; the “Biodistribution … Intestine” value is 6.81 (2.03) % injected dose per gram. For the same compound, in data set [1] (30 min after injection), the “Biodistribution of radioactivity, Kidney” value is 5.24 (0.59) % injected dose per gram; the “Biodistribution of radioactivity, Liver” value was 27.06 (2.49) % injected dose per gram; the “Biodistribution of radioactivity, Lung” value was 5.00 (0.34) % injected dose per gram; the “Biodistribution … Pancreas” value is 1.72 (0.11) % injected dose per gram. Besides, in data set [1] (30 min after injection), the “Biodistribution of radioactivity, Spleen” value is 3.11 (0.48) % injected dose per gram and the “Biodistribution … Stomach” value is listed as 8.24 (1.41) % injected dose per organ. In data set [1] (60 min after injection), the “Biodistribution of radioactivity, Blood” value is 3.51 (0.34) % injected dose per gram; the “Biodistribution of radioactivity, Brain” value is listed as 0.08 (0.02) % injected dose per gram; the “Biodistribution of radioactivity, Heart” value was 1.64 (0.32) % injected dose per gram; the “Biodistribution … Intestine” value is reported as 9.95 (2.65) % injected dose per gram. Also, in data set [1] (60 min after injection), the “Biodistribution of radioactivity, Kidney” value was 3.20 (0.45) % injected dose per gram; the “Biodistribution of radioactivity, Liver” value is given as 19.04 (3.61) % injected dose per gram; the “Biodistribution of radioactivity, Lung” value is reported as 2.78 (0.54) % injected dose per gram; the “Biodistribution … Pancreas” value was 1.11 (0.18) % injected dose per gram. Moreover, in data set [1] (60 min after injection), the “Biodistribution of radioactivity, Spleen” value is 1.36 (0.54) % injected dose per gram and the “Biodistribution … Stomach” value is on record as 6.47 (0.85) % injected dose per organ.

For Thioflavin-S, the Kd result in data set [3] is recorded as “μM order”.
